# Patent publication US20080051454A1, “Compositions and methods for transient receptor potential vanilloid (TRPV) channel mediated treatments” (The Board of Trustees Operating Michigan State University, priority 2006, published 2008)
# Experiments:
# WT and TRPV1−/− hearts = assay: OLDA-induced CGRP and SP release from hearts (radioimmunoassay); set-up: species or system mouse
# [1] = test system: rats fed either a high or normal sodium diet; conditions: cited from earlier work
# Wistar rats fed HS diet = assay: Blood pressure after i.v. SR141716A or CAPZ in conscious rats fed HS diet (Example I); type: in vivo, rat; conditions: 3 mg/kg iv
# Procedure: Experiments were approved by the Institutional Animals Care and Use Committee. Experiments were performed using male Wistar rats (Charles River Laboratory, Wilmington, Mass.). Rats (6 weeks old) were housed in the animal facility for 1 week before the experiments. Rats were then randomly assigned to a normal-sodium (NS) diet (0.4% of Na+ by weight, Harlan Teklad) or HS (4% of Na+ by weight; Harlan Teklad) for 3 weeks. Rats drank water ad libitum throughout the experiment.
# Surgical Preparation and MAP measurements: The rats were anesthetized with ketamine and xylazine (80 and 4 mg/kg intraperitoneally, respectively) for implantation of vascular catheters or with urethane ([…] intraperitoneally) throughout protocol 2. […]
# Protocol 1: Rats fed a NS or HS diet were randomly assigned to 5 groups for intravenous injection of vehicle or MethA alone or in combination with SR141716A (a CB1 receptor antagonist), CAPZ (a VR1 receptor antagonist), or the combination of the 2 (n=5 to 8). Baseline MAP and its response to the aforementioned drugs were determined 3 hours after surgery when animals were fully awake and unrestrained as described previously. […]
# hearts of WT mice = assay: Langendorff perfused heart, ischemia and reperfusion (I/R) with OLDA, wild type; set-up: species or system mouse; conditions: antagonist 1×10^−6 M
# Procedure: The following measurements were made on the two types of heart tissue: left ventricular end-diastolic pressure (LVEDP), left ventricular developed pressure (LVDP), coronary flow (CF), and left ventricular (LV) peak positive rate of pressure change/rate of time change (+dP/dt) were evaluated after I/R.
# TRPV1−/− hearts = assay: Preconditioning (PC) protection against I/R in Langendorff hearts with receptor antagonists, TRPV1-null; set-up: species or system mouse; conditions: CAPZ 10^−7 M, CGRP8-37 10^−6 M, RP67580 10^−7 M
# Procedure: Male TRPV1 gene knockout (TRPV1-/-) strain B6.129S[…][…]^tm1Jul and matching control wild type (WT) strain C57BL/6J mice were used (Jackson Laboratory, Bar Harbor, Me.). Mice were heparinized (500 U/kg i.p.) and anesthetized with pentobarbital sodium (50 mg/kg i.p.). […] The distal end of the catheter was connected to a […] Performance Analyzer via a pressure transducer. Coronary flow (CF) was continuously measured using an ultrasonic flow probe placed in the aortic perfusion line. Hearts were paced at 400 bpm except during ischemic PC and sustained global ischemia to avoid inducing excessive ventricular tachyarrhythmia during reperfusion, and pacing was reinitiated 2 minutes after reperfusion. Left ventricular developed pressure (LVDP, peak systolic minuses LVEDP) and LV peak positive […]) during isovolumic contraction were used as indices of LV systolic function; LVEDP and the peak negative […] used as indices of LV diastolic function. […] Non-preconditioned hearts were time-matched perfused with the same duration as that of preconditioned hearts. Group 1: Controls. As normal controls (nonischemic), WT and TRPV1-/- hearts were perfused for 130 minutes. For I/R controls, WT and TRPV1-/- hearts were first perfused with Krebs-Henseleit buffer for 55 min (time-matched perfusion of the equilibration period plus the PC period), and subsequently subjected to 30 minutes of no-flow normothermic global ischemia followed by 40-minutes of reperfusion. Group 2: PC. […] The hearts were subjected to 30 minutes of no-flow normothermic global ischemia followed by 40-minutes of reperfusion as that of I/R control groups. Group 3: PC plus capsazepine (CAPZ). […] Two additional concentrations of CAPZ, 10^-6M and 10^-8 M, were used in WT hearts. An additional drug control was added. After a 20-minute equilibration period, WT hearts were perfused with CAPZ (10^-7 M) for 10 minutes without PC, followed by perfusion with Krebs-Henseleit buffer for 25 minutes (time-matched perfusion of the PC period) and then subjected to I/R. Group 4: […] […]
structure (smiles),measurement,setting,value
"Oc1cc2c(cc1O)CN(C(=S)NCCc1ccc(Cl)cc1)CCC2 [CAPZ, N-[2-(4-Chlorophenyl)ethyl]-1,3,4,5-tetrahydro-7,8-dihydroxy-2H-2-benzazepine-2-carbothioamide]",effect on OLDA-increased CGRP and SP release in WT hearts,WT and TRPV1−/− hearts,blocked
same,effect on capsaicin actions on plasma CGRP and MAP,"[1]; rat, in vivo",blocked
same,pro-hypertensive effects of salt,[1]; rats fed a high salt diet,unmasked
same,duration of transient elevation in blood pressure after injection,Wistar rats fed HS diet,≤ 7 min
same,effect on protective effect of OLDA in WT hearts,hearts of WT mice,abolished
same,effect on these parameters in TRPV1−/− hearts,TRPV1−/− hearts,no effect
